Test results: patent US10428043B2, “Green oxidation catalytic system” (TRUSTEES OF BOSTON UNIVERSITY, priority 2014, dated 2019)
Several values for one entry are separate records, joined by “and”; a condition that tells them apart may be missing. Equal values may be shown once. Read-outs that look alike come from different tables or passages of the source.

Columns and labels:
[1] = Stopped-flow kinetics of NO binding at −85° C. in methanol; details: NO 6.4 mM
Text: (§1) Stopped-flow Spectroscopy and Data analysis.

[2] = room temperature, aqueous solution, depending on pH; cited from earlier work
[3] = Catalytic oxidation of methanol to formaldehyde with α-KG and O2 (Nash assay); details: for Total TON / TON: Methanol; for TON: product Formaldehyde
[4] = Room temperature O2 reactivity of ferrous complexes followed by UV/vis
Protocol: The solution was transferred to an anaerobic UV/vis cell and sealed. An initial spectrum was obtained of the ferrous complex, and then the solution was exposed to the air. Spectra were recorded every minute for the first two minutes and then every 5-30 minutes after that for seven hours. The absorbance was monitored at 350 nm to follow formation of the oxidized complex.
This solution was then transferred to an anaerobic UV/vis cell and sealed. An initial spectrum was obtained of the ferrous complex, and then the solution was exposed to the air. Spectra were collected every minute for the first 30 minutes and then every 5-20 minutes after that for 2 hours. The absorbance was monitored at 315 nm to follow formation of the oxidized complex.

[5] = Cyclic voltammetry, redox potentials; assay type: physicochemical
Text: All reagents and solvents used were purchased from commercial sources and used as received unless otherwise noted. Prior to use, methanol (Pharmco-Aaper) was distilled over magnesium metal, dimethyl sulfoxide (Fisher Scientific) was distilled over calcium hydride, triethylamine was distilled over sodium metal and unstabilized dichloromethane (Fisher Scientific) was distilled over calcium hydride. Ferrocene was purified by sublimation for use as a reference for electrochemical analyses. All manipulations involving ferrous complexes were carried out in an inert atmosphere glovebox (M. Braun, Stratham, N.H.) with distilled and thoroughly degassed solvents. UV/Vis spectra were collected using a Hewlett Packard Spectrometer (8453). IR spectra were collected using a Thermo Nicolet AVATAR 330-FT-IR. Cyclic voltammetry experiments were performed using a Princeton Applied Research model 273 potentiostat with a glassy carbon working electrode, a silver wire reference electrode and a platinum wire counter electrode. Electron Paramagnetic Resonance (EPR) spectra were collected on a Bruker ESP-300E spectrometer operating at 9.460 GHz. NMR spectra were recorded at 25° C. using a Varian spectrometer operating at 400 MHz with all chemical shifts referenced to SiMe4. Iron concentrations were determined using a Varian AA240Z Atomic Absorption Spectrometer.
Cyclic voltammetry was performed inside an inert atmosphere (N2) box, with degassed DMSO as the solvent and tetra-N-butylammonium hexafluorophosphate as the supporting electrolyte (0.2M). The ferrocenium/ferrocene couple was used as an internal reference; reduction potential values were corrected by assigning the ferrocenium/ferrocene couple to 0.64 V versus NHE (Zanello, P. Inorganic Electrochemistry; The Royal Society of Chemistry: Cambridge, 2003). Chloride titration experiments were performed by collecting CV data after the addition of one and two 50 μL aliquots of 204 mM [NEt4][Cl] to 3.0 mL of 3.4 mM [Fe^II(N2O1py)(Cl)2]^− (concentration determined using flame atomic absorption spectroscopy) and correcting the potential with reference to the ferrocenium/ferrocene couple.
It should be noted that these redox potentials were determined in the absence of excess halide, and further CV studies will be performed in the presence of excess halide for all derivatives of the N2O1py system.

[6] = Reactivity with α-KG, O2 and cyclooctane (GC-MS); details: Cyclooctane
Protocol: (§2) Reactivity Studies. […] (10-20 mM).

[7] = Reactivity with α-KG, O2 and 2,4-di-tert-butyl phenol (GC-FID); details: O2, [Fe] 9.6 μM
Protocol: as §2

[8] = Reactivity with α-KG, O2 and 9,10-dihydroanthracene (GC-FID); details: O2, [Fe] 10.1 μM
Protocol: as §2
(17) with α-KG, 02, and 9,10-dihydroanthracene.

[9] = cited from earlier work
[10] = Reactivity with α-KG, O2 and cyclohexene (GC); details: Cyclohexene
[11] = Low-temperature stopped-flow kinetics of binding of α-KG to 17; details: 17 + α-KG
[12] = Low-temperature stopped-flow kinetics of binding of p-CH3-BF to 17; details: 17 + p-CH3-BF
[13] = Low-temperature stopped-flow kinetics of adduct complexes with dioxygen; details: complex 0.94-1.1 mM, O2 5 mM, methanol, −85° C.
Protocol: as §1
Kinetic studies of [Fe^II(N2O1)(α-KG)(CH3OH)]^− and [Fe^II(N2O1)(p-X-BF)(CH3OH)]^− adduct complexes with dioxygen. Low-temperature stopped flow studies of this reaction were performed.
Order dependence analysis.
The kinetic model was built by starting from simple two- and three-exponential processes.
Stoichiometry of the equations for the proposed model in FIG. 29: […]

[14] = calculated from redox potentials for the one-electron transfer between iron and dioxygen

In the case of `O.O.O=C([O-])CN(CCN(CC(=O)[O-])CC(=O)O)CC(=O)[O-].[Cl-].[K+].[Ru+3]` [K[Ru^III(Hedta)Cl].2H2O], the “k20 (loss of a ligand before NO binding)” value [1] is listed as 8.2 s⁻¹, the “k21 (second order, NO binding)” value [1] is listed as 127 M⁻¹ s⁻¹ and the “rate k of reaction with NO” value [2] is listed as 38000 to 120000 M⁻¹ s⁻¹.

For `CN(CC(=O)[O-])Cc1ccccn1.O=C([O-])CCC(=O)C(=O)[O-].[Fe+2]` [[Fe^II(N2O1py)(αKG)]], the “turnover number (equivalents of formaldehyde per iron center)” value ([3]; N2O1py system, iron complex 1.0 μM, five equivalents [Na][αKG], O2, 60 min) was 33, the “turnover number (equivalents of formaldehyde per equivalent of iron)” value ([3]; N2O1py system, iron complex 100 μM, five equivalents [Na][αKG], O2, 60 min) was 0.7 and the “time for reaction with O2, in words” value ([4]; αKG adduct) was “within minutes”.

With `CN(C)c1cccc2cccc([NH+](C)C)c12.CN(CC(=O)[O-])Cc1ccccn1.[Cl-].[Cl-].[Cl-].[Fe+3]` [Fe^III N2O1py, [PSH][Fe^III(N2O1py)(Cl)3]] the ΔE ([5]; no added halide) was 128 mV and the E1/2 ([5]; no added halide, in mV) was “+189”.

With `CN(C)CCN(C)CC(=O)[O-].[Cl-].[Cl-].[Fe+2].[Na+]` [compound 17, [Fe^II(N2O1)Cl2][Na]] the “Total TON” value ([3]; O2, [Fe] 1.0 μM) was 285, the TON ([3]; O2, [Fe] 1.0 μM) was 285 and the “Total TON” value ([3]; O2, [Fe] 6.2 μM) was 54. The TON ([3]; O2, [Fe] 6.2 μM) was 54, the “Total TON” value ([3]; O2, [Fe] 8.0 μM) was 36 and the TON ([3]; O2, [Fe] 8.0 μM) was 36. For the same compound, the “Total TON” value ([3]; O2, [Fe] 12.5 μM) was 22, the TON ([3]; O2, [Fe] 12.5 μM) was 22 and the “Total TON” value ([3]; O2, [Fe] 100 μM) was 3.5. The TON ([3]; O2, [Fe] 100 μM) was 3.5, the “Total TON” value ([3]; O2, [Fe] 200 μM) was 2.1 and the TON ([3]; O2, [Fe] 200 μM) was 2.1. For the same compound, the “Total TON” value ([3]; O2, [Fe] 300 μM) was 1.3, the TON ([3]; O2, [Fe] 300 μM) was 1.3 and the “Total TON” value ([3]; O2, [Fe] 500 μM) was 0.82. For the same compound, the TON ([3]; O2, [Fe] 500 μM) was 0.82, the “Total TON” value ([3]; O2, [Fe] 2500 μM) was 0.46 and the TON ([3]; O2, [Fe] 2500 μM) was 0.46. For the same compound, the “Total TON” value ([3]; O2, [Fe] 5000 μM) was 0.39, the TON ([3]; O2, [Fe] 5000 μM) was 0.39 and the “Total TON” value ([6]; Air, [Fe] 1.1 μM) was 317. For the same compound, the TON ([6]; Air, [Fe] 1.1 μM, product Cyclooctanol) was 189, the TON ([6]; Air, [Fe] 1.1 μM, product Cyclooctanone) was 64 and the “Total TON” value ([6]; O2, [Fe] 1.1 μM) was 305. For the same compound, the TON ([6]; O2, [Fe] 1.1 μM, product Cyclooctanol) was 182, the TON ([6]; O2, [Fe] 1.1 μM, product Cyclooctanone) was 62 and the “Total TON” value ([6]; O2, [Fe] 9.7 μM) was 40. For the same compound, the TON ([6]; O2, [Fe] 9.7 μM, product Cyclooctanol) was 24, the TON ([6]; O2, [Fe] 9.7 μM, product Cyclooctanone) was 7.8 and the “Total TON” value [7] was 619. For the same compound, the TON ([7]; product 3,3′-5,5′-terta-t-butyl-2,2′-dihydroxybiphenyl) was 619, the “Total TON” value [8] was 128 and the TON ([8]; product Anthracene) was 54. For the same compound, the TON ([8]; product Anthraquinone) was 26, the TON ([8]; product Anthrone) was 21 and the E1/2 ([5]; DMSO, glassy carbon working electrode, absence of excess halide) was 159 mV. For the same compound, the Keq [5, 14] was 1.1 × 10^−8, the “ΔG°” value [5, 14] was 45 kJ and the E1/2 ([5]; no added halide, in mV) was “+159”. The “time for formation of the diferric oxo-bridged product on reaction with O2” value ([4]; methanol) was roughly 6 h, the solubility ([9]; DMF and DMSO) was “only slightly soluble” and the solubility ([9]; other common polar and nonpolar aprotic solvents, including CH3CN, CH2Cl2, THF, Et2O, toluene and ethyl acetate) was “insoluble”. For the same compound, the solubility ([9]; protic solvents) was “soluble”, the “Total TON” value ([10]; O2, [Fe] 9.6 μM) was 520 and the “Total TON” value ([10]; O2, [Fe] 9.6 μM + TEMPO) was 414. It also gave a TON ([10]; O2, [Fe] 9.6 μM + TEMPO (6 × 10^4 excess), product Cyclohexene oxide) of 53, a TON ([10]; O2, [Fe] 9.6 μM + TEMPO, product 2-Cyclohexen-1-ol) of 240 and a TON ([10]; O2, [Fe] 9.6 μM + TEMPO, product 2-Cyclohexen-1-one) of 60. It also gave a TON ([10]; O2, [Fe] 9.6 μM, product 2-Cyclohexen-1-ol) of 249, a TON ([10]; O2, [Fe] 9.6 μM, product 2-Cyclohexen-1-one) of 70 and a TON ([10]; O2, [Fe] 9.6 μM, product Cyclohexene oxide) of 132. For the same compound, the k15 ([11]; methanol, −85° C.) was 9.6 M⁻¹ s⁻¹ and 10 ± 0.2 M⁻¹ s⁻¹, the k16 ([11]; methanol, −85° C.) was 1.7 s⁻¹ and 1.7 ± 0.5 s⁻¹ and the k17 ([11]; methanol, −85° C.) was 0.53 s⁻¹ and 0.5 ± 0.1 s⁻¹. For the same compound, the “ΔH^‡ of k15” value ([11]; −85 to −70° C.) was 8.6 ± 0.48 kcal/mol, the “ΔH^‡ of k16” value ([11]; −85 to −70° C.) was 12 ± 1.2 kcal/mol and the “ΔH^‡ of k17” value ([11]; −85 to −70° C.) was 11.2 ± 1.4 kcal/mol. The “ΔS^‡ of k16” value ([11]; −85 to −70° C.) was 31.3±23 J mol^−1 K^−1 and 31 ± 23 J mol^−1 K^−1, the “ΔS^‡ of k17” value ([11]; −85 to −70° C.) was 3 ± 1 J mol^−1 K^−1 and the k15 ([12]; methanol, −85° C.) was 45.3 M⁻¹ s⁻¹ and 45 ± 5 M⁻¹ s⁻¹. The k16 ([12]; methanol, −85° C.) was 12 ± 1 s⁻¹, the k17 ([12]; methanol, −85° C.) was 1.2 ± 0.1 s⁻¹ and the “ΔH^‡ of k15” value ([12]; −85 to −70° C.) was 8.37 ± 0.48 kcal/mol. The “ΔH^‡ of k16” value ([12]; −85 to −70° C.) was 10 ± 2.2 kcal/mol, the “ΔH^‡ of k17” value ([12]; −85 to −70° C.) was 9.08 ± 0.24 kcal/mol and the “ΔS^‡ of k16” value ([12]; −85 to −70° C.) was 1.5 ± 0.9 J mol^−1 K^−1. For the same compound, the “ΔS^‡ of k17” value ([12]; −85 to −70° C.) was 36.9±15 J mol^−1 K^−1 and 37 ± 15 J mol^−1 K^−1.

With `CN(C)CCN(C)CC(=O)[O-].CO.N#Cc1ccc(C(=O)C(=O)[O-])cc1.[Fe+2]` [compound 25, [Fe^II(N2O1)(p-CN-BF)(CH3OH)]] the “k′1” value [13] was 8.7 ± 1.2 s⁻¹, the “k′2” value [13] was 140 ± 12 M⁻¹ s⁻¹ and the “k′3” value [13] was 60 ± 5 s⁻¹. For the same compound, the “k′4 (k′4obs)” value [13] was 0.2 ± 0.02 s⁻¹.
